Laboratory results published in PMC7433010, “Exploration of multi‐target effects of 3‐benzoyl‐5‐hydroxychromen‐2‐one in Alzheimer’s disease cell and mouse models” (Aging Cell, 2020).
Where two headings read alike, the source gives them in different places.

Columns and labels:
[1] = target: T1, His‐tagged ∆K280 TauRD protein (Homo sapiens, UniProt P10636, DEL597-597); assay: TEM examination of ΔK280 TauRD aggregates; assay type: biochemical; conditions: 10 µM
T1 construct: containing residues 244–372 of the full‐length 4R2N Tau441; added start Met (ATG codon in forward primer) (N); made in house; host or cells: E. coli BL21(DE3)pLysS
Source text: For TauRD aggregation examination, the samples of formed fibrils without or with compound addition were placed on a 200-Mesh copper (holey-carbon) grid and viewed on a JEM-1230 transmission electron microscope (JEOL, Tokyo, Japan) at an accelerating voltage of 100 kV.
Figure S3. TauRD-His proteins and Tau aggregation monitored by thioflavin T fluorescence and TEM. (a) SDS-PAGE gel (left) and Western blot (right) of wild type (WT) and ΔK280 TauRD proteins from IPTG-induced bacterial cells. Wild type clone #3 and ΔK280 clone #2 (marked in red) were selected to prepare purified proteins for thioflavin T and TEM studies. (b) Thioflavin T binding assay for TauRD aggregation. TauRD protein (20 μM in 50 μl buffer) was incubated with congo red, licochalcone A, or LM compounds (1−10 μM) at 37°C for 48 h, and aggregation was monitored by measuring thioflavin T fluorescence intensity (n = 3). p values: comparisons between 0 h and 48 h (^###: p < 0.001), wild type versus ΔK280 (^&&&: p < 0.001), or with and without compound addition (**: p < 0.01, ***: p < 0.001). (one-way ANOVA with a post hoc Tukey test) (c) TEM examination of ΔK280 TauRD aggregation without or with congo red and LM-004 (10 μM) addition.

[2] = MTT cytotoxicity in uninduced ∆K280 TauRD‐DsRed 293 cells; assay type: cell-based; conditions: human
Procedure: (§1) Licochalcone A and five derivative LM compounds were tested (Figure 1a). All six compounds were soluble up to 100 μM in a cell culture medium (Figure S1a). Based on molecular weight (MW), hydrogen bond donors (HBD), hydrogen bond acceptors (HBA), and calculated octanol/water partition coefficient (cLogP), all six compounds meet Lipinski's criteria in predicting oral bioavailability (Lipinski, Lombardo, Dominy, & Feeney, 1997) (Figure S1b). […] To choose the optimal treatment dose used for the best efficacy of the candidate compounds, a specific type of biphasic dose response of a compound called hormesis should take into consideration. Evidence has shown that a wide range of pharmaceutical products display a hermetic dose‐response feature, characterized by a low‐dose stimulation and a high‐dose inhibition (Calabrese et al., 2018; Concetta Scuto et al., 2019; Pilipenko et al., 2019). Therefore, we tested the compounds at a range of doses to find the optimal dose for the best therapeutic effect and the least cytotoxicity. Firstly, MTT assay was performed using uninduced ∆K280 TauRD‐DsRed 293 and retinoic acid‐differentiated SH‐SY5Y cells following treatment with the test compounds (0.1–10 μM) for 3 (for 293 cells) or 7 (for SH‐SY5Ycells) days. […] Congo red is an amyloidogenic dye known to reduce Aβ neurotoxicity (Lorenzo & Yankner, 1994).
(§2) Licochalcone A was purchased from Sigma-Aldrich, St. Louis, MO, USA. In-house LM compounds were synthesized and characterized by NMR spectrum as described (Lee et al., 2012, 2015, 2018). Tet-On ∆K280 TauRD-DsRed 293 and SH-SY5Y cells (Chang et al., 2016) were cultured in Dulbecco’s modified Eagles medium (DMEM) (293) or DMEM-F12 (SH-SY5Y) containing 10% fetal bovine serum (Invitrogen, Carlsbad, CA, USA), 5 μg/ml of blasticidin, and 100 μg/ml of hygromycin (InvivoGen, San Diego, CA, USA). Compound cytotoxicity was assessed by colorimetric assay for measuring cell metabolic activity. Briefly, 5 × 10^4 cells were plated (48-well plates), grown for 20 h, and treated with the test compounds ([…]). […], 20 µl of 3-(4,5-dimethylthiazol-2-yl)-2,5-diphenyltetrazolium bromide (MTT, 5 mg/ml in PBS; Sigma-Aldrich) was added to the cells and incubated at 37°C for 3 h. Then 200 µl of lysis buffer (10% Triton X-100, 0.1 N HCl, 18% isopropanol) was added and the absorbance of the insoluble product at OD 570 nm was measured by a microplate reader (FLx800 fluorescence microplate reader, Bio-Tek, Winooski, VT, USA). The half-maximal inhibitory concentration (IC50) was calculated using the interpolation method.
(§3) Figure S1. Test compounds. (a) Solubility (in cell culture medium) of test compounds. (b) Molecular weight (MW), hydrogen bond donor (HBD), hydrogen bond acceptor (HBA), calculated octanol-water partition coefficient (cLogP), polar surface area (PSA), and predicted blood-brain barrier (BBB) score of test compounds. (c) Cytotoxicity of test compounds against ∆K280 TauRD-DsRed 293 and SH-SY5Y cells using the MTT assay. Uninduced 293 cells were plated on day 1 and treated with 0.1–10 μM test compounds on day 2. Cell viability was measured on day 5 (n = 3). In addition, uninduced SH-SY5Y cells were seeded with all trans retinoic acid (RA; 10 µM) on day 1 and treated with 0.1–10 μM test compounds on day 2. Cell viability was measured on day 9 (n = 3). To normalize, the relative viability in compound untreated cells was set at 100%. IC50 values are listed.

[3] = MTT cytotoxicity in uninduced retinoic acid‐differentiated SH‐SY5Y cells; assay type: cell-based; conditions: human
Procedure: as §1, §2, §3

T1 sequence (P10636 with tags, fused parts or gaps isoform P10636-8 DEL280-280): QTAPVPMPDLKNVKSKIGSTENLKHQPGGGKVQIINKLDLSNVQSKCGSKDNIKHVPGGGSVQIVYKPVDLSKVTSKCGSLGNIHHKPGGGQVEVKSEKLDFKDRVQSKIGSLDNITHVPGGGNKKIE

| SMILES | Tau aggregates by TEM [1] | IC50 at 3 days [2] [µM] | IC50 at 7 days [3] [µM] | IC50 at 3 days ([2]; uninduced Tet-On ∆K280 TauRD-DsRed 293 cells, uninduced 293 cells, 3 days treatment, read-out: IC50 (MTT cytotoxicity)) [µM] | IC50 at 7 days ([3]; uninduced retinoic acid‐differentiated SH‐SY5Y cells, 7 days treatment, read-out: IC50 (MTT cytotoxicity)) [µM] |
| --- | --- | --- | --- | --- | --- |
| COc1ccc(C(=O)/C=C/c2cc(Br)ccc2O)cc1 [LM‐004] | reduced Tau aggregates | 6.4 | 4.8 | – | – |
| O=C(c1ccccc1)c1cc2c(O)cccc2oc1=O [LM‐031, 3‐benzoyl‐5‐hydroxychromen‐2‐one] | – | 55.9 | 6.8 | – | – |
| Nc1c(/N=N/c2ccc(-c3ccc(/N=N/c4cc(S(=O)(=O)O)c5ccccc5c4N)cc3)cc2)cc(S(=O)(=O)O)c2ccccc12 [congo red, reference compound] | reduced Tau aggregates | 36.4 | 27.4 | – | – |
| C=CC(C)(C)c1cc(/C=C/C(=O)c2ccc(O)cc2)c(OC)cc1O [licochalcone A, reference compound] | – | – | – | 7 | 5.8 |
